The record followed here is US6498159B1, “Phthalazine derivatives and remedies for erectile dysfunction” (Eisai Co., Ltd., priority 1998, dated 2002).

Assay [1] has as its system penile cavernosum preparation removed from a rabbit. In words: Augmenting action of PDE5 inhibitor on the relaxation by nitroprusside of the penile cavernosum preparation removed from a rabbit. The conditions noted are these: for EC50: Oryctolagus cuniculus, compound concentration at which the contraction caused by phenylephrine is relaxed by 50%, regression analysis on relaxation curve, duplicate; for Relaxation ratio (%): after nitroprusside (300 μM), phenylephrine contraction, mean of duplicate. How it is done:
2) Augmenting Action of the PDE5 Inhibitor on the Relaxing Action of Nitroprusside on a Penile Cavernosum Preparation Removed from a Rabbit
The penis was removed from a NZW white rabbit (about 3 kg) killed by intravenous administration of pentobarbital (50 mg/kg). After removal, the cavernosum was exposed by removal of surrounding tissues such as albuginea to give a preparation (about 10×1.5×1.5 mm). This preparation was suspended on a Magnus tube filled up with 10 ml Krebs-Henseleit's nutritive solution (118.4 mM NaCl, 4.7 mM KCl, 2.5 mM CaCl2, 1.3 mM MgSO4, 1.2 mM KH2PO4, 25.0 mM NaHCO3, 11.0 mM glucose, 0.026 mM EDTA and 0.001 mM indomethacin) at 37° C., and a gas mixture (95% oxygen+5% carbon dioxide) was bubbled thereinto. Then, the isometric tension was recorded under a load of 2 g. To stabilize the contraction, contraction caused by adding a potassium chloride solution (final concentration: 100 mM) and washing were repeated twice, and further, contraction by adding phenylephrine (final concentration: 10 μM) and washing were also conducted.
It was filled up again with 10 ml Krebs-Henseleit's solution, and L-N^G-nitroarginine methyl ester (final concentration: 100 μM) was added to inhibit the formation of endogenous nitrogen monoxide. Contraction was caused by adding phenylephrine (final concentration: 10 μM), and a chemical solution was added thereto at a final concentration of 3, 30 or 300 nM. Dimethyl sulfoxide was used as the medium in this reaction. 15 min after the chemical was added, nitroprusside (final concentration: 300 μM) was added to relax the preparation. Further, papaverine (final concentration: 100 μM) was added to determine the maximum relaxation.
After the experiment, the tension generated upon adding papaverine was used as the base line, and the relaxation of the preparation by adding nitroprusside was recorded on a chart by using a DEGIMATIC CALIPER to determine the degree of relaxation.
Values in the table indicate relaxation ratio (%) after nitroprusside was added to the preparation pretreated with the 3, 30 and 300 nM compound, and the mean in a duplicate experiment was recorded. Further, the EC50 value indicates the compound concentration at which the contraction caused by phenylephrine is relaxed by 50%, and this value was calculated by regression analysis on a relaxation curve in the duplicate experiment.

Another assay concerns the target PDE5 (Sus scrofa, UniProt A0A287B475). In words: Inhibitory action on the enzyme cGMP-PDE obtained from porcine platelets. It counts as biochemical. The settings on record: 1 μM cGMP substrate, 1 mM EGTA, read-out: PDE 5 IC50. How it is done:
1) Inhibitory Action on the Enzyme cGMP-PDE Obtained from Porcine Platelets
The inhibitory activity of a test compound on the enzyme cGMP-PDE prepared from porcine platelets was determined by adding a solution of the test compound dissolved in DMSO to a reaction solution, where 1 μM cGMP was used as the substrate in the presence of 1 mM EGTA in accordance with a method of Tompson et al. The final concentration of DMSO in the reaction solution was 1% or less. Preparation of cGMP-PDE was conducted as follows. Porcine platelets were added to buffer A (20 mM Tris/HCl, 2 mM magnesium acetate, 10 mM 2-mercaptoethanol, 0.1 mM EGTA; pH 7.4), and then sonicated. The resulting suspension was centrifuged at 100,000×g for 60 min, and the resulting supernatant was subjected to a column (DEAE-Toyopearl 650S produced by Tosoh, Tokyo, Japan). After the column was washed with buffer A, the enzyme was eluted with a gradient of from 0.075 to 0.25 M NaCl in buffer A to give a CGMP-PDE fraction. The resulting fraction was dialyzed, concentrated and stored.

The mark [2] stands for this setting: preparation pretreated with 3 nM compound.
Where [3] appears, read: preparation pretreated with 30 nM compound.
The mark [4] stands for this setting: preparation pretreated with 300 nM compound.

In assay [1], `COc1ccc(CNc2nnc(N3CCC4(CC3)CC(O)C4)c3ccc(C#N)cc23)cc1Cl.Cl` [Example 9, 4-[(3-Chloro-4-methoxybenzyl)amino]-1-(2-hydroxy-7-azaspiro[3.5]non-7-yl)-6-phthalazinecarbonitrile Hydrochloride] had a half-maximal effective concentration (EC50) of 2 nM. In addition, the “Relaxation ratio (%)” value was determined as 56.6% in assay [1] (setting [2]), 77.7% in assay [1] (setting [3]) and 79.6% in assay [1] (setting [4]). For the same compound, the 50% inhibitory concentration (IC50) at PDE5 turned out to be 0.54 nM.
`COc1ccc(CNc2nnc(N3CCC(C(F)CO)CC3)c3ccc(C#N)cc23)cc1Cl.Cl` (stereo not drawn) [Example 36, 4-[(3-Chloro-4-methoxybenzyl)amino]-1-(4-[1-fluoro-2-hydroxyethyl)piperidino]-6-phthalazinecarbonitrile Hydrochloride] showed a concentration giving a half-maximal response (EC50) in assay [1] of 3.5 nM. Further, the figures for the “Relaxation ratio (%)” value in assay [1] (setting [2]), in assay [1] (setting [3]) and in assay [1] (setting [4]) were 35.0%, 60.8% and 54.8%, respectively. Besides, on PDE5, the IC50 was found to be 0.25 nM.
Compound `COc1ccc(CNc2nnc(N3CCC(OCCO)CC3)c3ccc(C#N)cc23)cc1Cl.Cl` [Example 37, 4-[(3-Chloro-4-methoxybenzyl)amino]-1-[4-(2-hydroxyethoxy)piperidino]-6-phthalazinecarbonitrile Hydrochloride] registered a half-maximal effective concentration (EC50) in assay [1] of 29.3 nM. The “Relaxation ratio (%)” value is recorded as 33.4% in assay [1] (setting [2]), 50.1% in assay [1] (setting [3]) and 56.0% in assay [1] (setting [4]).
The compound `COc1ccc(CNc2nnc(N3CCC(O)CC3)c3ccc(C#N)cc23)cc1Br.Cl` [Example 77, 4-[(3-Bromo-4-methoxybenzyl)amino]-1-(4-hydroxypiperidino)-6-phthalazinecarbonitrile Hydrochloride] showed a half-maximal effective concentration (EC50) in assay [1] of 0.7 nM. The “Relaxation ratio (%)” value in assay [1] (setting [2]) stood at 58.8%; in assay [1] (setting [3]) it was 71.7%; in assay [1] (setting [4]) it was 80.6%. Also, the 50% inhibitory concentration (IC50) at PDE5 stood at 0.23 nM.
`COc1ccc(CNc2nnc(N3CCC(F)(CO)CC3)c3ccc(C#N)cc23)cc1Br.Cl` [Example 83, 4-[(3-Bromo-4-methoxybenzyl)amino]-1-[4-fluoro-4-(hydroxymethyl)piperidino]-6-phthalazinecarbonitrile Hydrochloride] displayed a concentration giving a half-maximal response (EC50) in assay [1] of 2.8 nM. Further, the results for the “Relaxation ratio (%)” value in assay [1] (setting [2]), in assay [1] (setting [3]) and in assay [1] (setting [4]) were 50.6%, 67.3% and 69.9%, respectively. Moreover, the IC50 at PDE5 worked out at 0.5 nM.
In assay [1], `COc1ccc(CNc2nnc(N3CCC(O)CC3)c3ccc(C#N)cc23)cc1C.Cl` [Example 86, 1-(4-Hydroxypiperidino)-4-[(4-methoxy-3-methylbenzyl)amino]-6-phthalazinecarbonitrile Hydrochloride] came in with a 50% effective concentration (EC50) of 3 nM. The “Relaxation ratio (%)” value in assay [1] (setting [2]) is reported as 50.2%; in assay [1] (setting [3]), 70.2%; in assay [1] (setting [4]) it was 71.5%.
Regarding `COc1ccc(CNc2nnc(N3CCC(F)(CO)CC3)c3ccc(C#N)cc23)cc1C.Cl` [Example 88, 1-[4-Fluoro-4-(hydroxymethyl)piperidino]-4-[(4-methoxy-3-methylbenzyl)amino]-6-phthalazinecarbonitrile Hydrochloride], the EC50 in assay [1] was 3 nM. Moreover, the “Relaxation ratio (%)” value in assay [1] (setting [2]) was determined as 50.0%; in assay [1] (setting [3]) it was 67.5%; in assay [1] (setting [4]), 75.0%. Also, on PDE5, the IC50 turned out to be 0.89 nM.
